The values that follow come from ChEMBL document CHEMBL1126214, “Muscarinic agonist SAR of azaspirodioxolanes” (Bioorg Med Chem Lett, 1992).

Test [1] addresses T1, Muscarinic acetylcholine receptor M1 (Rattus norvegicus, UniProt P08482).
T1 sequence (P08482 whole entry): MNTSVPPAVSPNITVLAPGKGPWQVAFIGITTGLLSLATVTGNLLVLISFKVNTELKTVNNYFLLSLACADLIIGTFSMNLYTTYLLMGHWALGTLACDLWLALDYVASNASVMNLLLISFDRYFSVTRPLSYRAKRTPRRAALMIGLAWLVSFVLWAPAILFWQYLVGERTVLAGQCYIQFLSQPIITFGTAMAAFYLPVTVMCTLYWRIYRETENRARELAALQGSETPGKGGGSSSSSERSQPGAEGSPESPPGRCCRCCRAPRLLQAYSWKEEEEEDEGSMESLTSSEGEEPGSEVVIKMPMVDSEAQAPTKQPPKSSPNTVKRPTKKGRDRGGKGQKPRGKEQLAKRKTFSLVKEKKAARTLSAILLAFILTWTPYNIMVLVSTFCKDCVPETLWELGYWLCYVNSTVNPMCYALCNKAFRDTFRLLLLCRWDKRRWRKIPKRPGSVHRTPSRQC
Put plainly: (§1) Compound was tested in vitro for its muscarinic m1 receptor agonist potency in the ileum model as a functional measure of peripheral muscarinic m1 receptor activity. The settings on record: read-out: pA2 (converted). Type of test: tissue-based.

In test [2] the target is T1, Muscarinic acetylcholine receptor M1. Put plainly: In vitro 100 nM cortex affinity to displace [3H]- -CD providing a measure of muscarinic m1 receptor agonist affinity.
Test [3] has the same target. Put plainly: In vitro 100 nM cortex affinity to displace [3H]- -pirenzepine providing a measure of muscarinic m1 receptor antagonist affinity.
The target is the same in test [4]. Put plainly: Compound was tested in vitro for its efficacy in the ileum model as a functional measure of peripheral muscarinic m1 receptor activity. The settings on record: read-out: pA2 (converted). Type of test: tissue-based.
The target in test [5] is T2, Muscarinic acetylcholine receptor M1 (Rattus norvegicus) (UniProt P08482).
T2 sequence (whole entry): T1 sequence (P08482 whole entry)
The settings on record: Ileum.
Description: In vitro for muscarinic M1 receptor agonist potency in the ileum model as a functional measure of peripheral muscarinic activity.

Test [6] concerns the target T2, Muscarinic acetylcholine receptor M1 (Rattus norvegicus).
Description: In vitro muscarinic agonist potency in the ganglion model as a functional measure of central muscarinic M1 receptor activity.
The target is the same in test [7]. Put plainly: Compound was tested in vitro for its muscarinic agonist potency in the ganglion model as a functional measure of central muscarinic m1 receptor activity.
The target is the same in test [8]. Described as §1. Type of test: tissue-based.

Some results are limits rather than exact numbers.

Turning to `CN1CCC2(CC1)COC(c1ccccc1)(c1ccccc1)O2`, the results for the Kb in test [1] and in test [4] were 10 nM and 6.31 nM, respectively. In addition, the Ki (usually a measure of affinity in units of concentration, obtained from inhibition or displacement) is 8.1 nM in test [2] and 0.6 nM in test [3].

With `CN1CCC2(CC1)COC(C(Cl)(Cl)Cl)O2` (centres undefined), the Ki worked out at 960 nM in test [2] and 200 nM in test [3].

Take `C#CC1OCC2(CCN(C)CC2)O1` (centres undefined): the pD2 in test [5] stood at 5.2; in test [6], 5.9. For the same compound, the Ki in test [2] amounted to 295 nM; in test [3], 3000 nM.

`C[C@H]1OCC2(CN3CCC2C3)O1` (some centres undefined): the figures for the pD2 in test [5] and in test [6] were 4.1 and 4.4, respectively. Further, the Ki in test [2] was 1850 nM; in test [3] it was over 10000 nM.

For `C[C@@H]1OCC2(CN3CCC2CC3)O1` (some centres undefined), the pD2 in test [5] stood at 4.8; in test [6], 6. Further, the results for the Ki in test [2] and in test [3] were 90 nM and 1570 nM, respectively.

As to `CN1CCC2(CC1)COC(c1ccccc1)O2` (centres undefined), the Kb in test [1] was 5010 nM. The Ki was 2800 nM in test [2] and 620 nM in test [3].

Take `CCC1OCC2(CCN(C)CC2)O1` (centres undefined): the values for the pD2 in test [5] and in test [6] were 5 and 5.5, respectively. For the same compound, the Ki in test [2] worked out at 745 nM; in test [3], 1320 nM.

For `CC1OCC2(CC[N+](C)(C)CC2)O1` (centres undefined), the figures for the pD2 in test [5] and in test [6] were 5.2 and 6.1, respectively. In addition, the inhibitory constant (Ki) in test [2] worked out at 210 nM; in test [3], 5000 nM.

With `CC1OCC2(CCNCC2)O1` (centres undefined), the pD2 in test [5] turned out to be 5.1; in test [6], 5.9. The Ki in test [2] is 145 nM; in test [3] it was over 10000 nM.

Consider `CC1SCC2(CCN(C)CC2)S1` (centres undefined), for which the pD2 in test [5] was 4.9; in test [6] it was 5. Also, the results for the inhibition constant (Ki) in test [2] and in test [3] were 530 nM and 2100 nM, respectively.

`C[C@@H]1OCC2(CCN(C)C2)O1` (stereo in doubt; cis) [listing 1 of 2 here]: the pD2 in test [5] stood at 5.2; in test [6], 5.6.

Turning to `CC1OCC2(CCCN(C)C2)O1` (centres undefined), the pD2 in test [5] and in test [6] was under 4 throughout.

Turning to `CN1CCC2(CC1)COCO2`, the pD2 in test [5] and in test [7] was 4.6 in each case. Moreover, the inhibition constant (Ki) is 1200 nM in test [2] and over 10000 nM in test [3].

For `CC1OCC2(CCN(C)CC2)S1` (centres undefined), the pD2 stood at 5.1 in test [5] and 5.6 in test [6]. The Ki in test [2] is 720 nM; in test [3] it was 3160 nM.

`CC1OC2(CCN(C)CC2)CS1` (centres undefined): the pD2 was 6 in test [5] and 6.1 in test [6]. Moreover, the Ki in test [2] amounted to 185 nM; in test [3] it was 2650 nM.

Regarding `CC1OC[C@@]2(CN3CCC2C3)O1` (some centres undefined), the pD2 was determined as 5.9 in test [5] and 6.5 in test [7]. In addition, the Ki was 30 nM in test [2] and 1950 nM in test [3].

As to `C[C@H]1OC[C@@H](C[N+](C)(C)C)O1`, the values for the pD2 in test [5] and in test [6] were 7.5 and 7.8, respectively. In addition, the Ki in test [2] was determined as 6.4 nM; in test [3], 2100 nM.

As for `CCC1C(=O)CC2(CCN(C)CC2)C1=O` (centres undefined), the results for the pD2 in test [5] and in test [6] were 6.1 and 6.7, respectively. Further, the figures for the Ki in test [2] and in test [3] were 87 nM and 765 nM, respectively.

Regarding `C[C@@H]1OCC2(CCN(C)C2)O1` (stereo in doubt; cis) [listing 2 of 2 here], the Ki is 550 nM in test [2] and over 10000 nM in test [3].

Regarding `C[C@H]1OC2(CCN(C)C2)CS1` (some centres undefined), the results for the pD2 in test [5] and in test [6] were 5.2 and 5.7, respectively. The Ki in test [2] came out at 585 nM; in test [3], 6700 nM.

As for `CN1CCC2(CC1)COC(C)(C)O2`, the pD2 in test [8] and in test [6] was under 4 in each case. Moreover, the Ki in test [2] and in test [3] was over 10000 nM in each case.

For the compound `C[C@@H]1OC2(CS1)CN1CCC2CC1` (some centres undefined), the pD2 in test [5] turned out to be 5.4; in test [6], 5.7. The Ki came out at 515 nM in test [2] and 1250 nM in test [3].

The compound `C[C@@H]1OCC2(CCN(C)C2)O1` (stereo in doubt; trans) [listing 1 of 2 here] came in with a pD2 in test [5] of 4.5.

For `C[C@@H]1O[C@H](C[N+](C)(C)C)C[C@H]1O`, the results for the pD2 in test [5] and in test [6] were 6.8 and 7.4, respectively.

On to `CC[C@H](C)[C@@H]1NC(=O)[C@H](CCCN=C(N)N)NC(=O)[C@@H](CC(=O)O)NC(=O)[C@H]([C@@H](C)CC)NC(=O)[C@@H](CCCN=C(N)N)NC(=O)CNC(=O)CNC(=O)[C@@H](Cc2ccccc2)NC(=O)[C@H](C)NC(=O)[C@@H](NC(=O)[C@H](CO)NC(=O)[C@@H](N)CO)CSSC[C@@H](C(=O)N2C[C@H](C(=O)N[C@H](CCCN=C(N)N)C(=O)O)Cc3ccccc32)NC1=O`, for which the pD2 in test [5] is 4.1; in test [6] it was under 4.

As for `C[C@H]1OC2(CS1)CN1CCC2CC1` (some centres undefined), the pD2 in test [5] worked out at 4.9; in test [6] it was 6.1. Besides, the values for the Ki in test [2] and in test [3] were 105 nM and 430 nM, respectively.

Turning to `CC1C(=O)CC2(CCN(C)CC2)C1=O` (centres undefined), the pD2 in test [5] came to 5.5; in test [6], 6.2. Also, the Ki in test [2] came to 175 nM; in test [3], 4050 nM.

As to `C[C@@H]1OCC2(CN3CCC2C3)O1` (some centres undefined), the pD2 in test [5] amounted to 5.5; in test [6], 5.7. For the same compound, the Ki in test [2] amounted to 180 nM; in test [3], 6400 nM.

In the case of `C[C@@H]1OCC2(CCN(C)C2)O1` (stereo in doubt; trans) [listing 2 of 2 here], the Ki in test [2] is 1750 nM; in test [3], over 10000 nM.

As for `COC1OCC2(CCN(C)CC2)O1` (centres undefined), the pD2 in test [5] was determined as 4.7; in test [6], 5.5. For the same compound, the Ki in test [2] was 870 nM; in test [3] it was over 10000 nM.

In the case of `C[C@@H]1OCC2(CCN(C)C2)S1` (some centres undefined), the inhibitory constant (Ki) is 9150 nM in test [2] and over 10000 nM in test [3].
